Patent US11420956B2, “Ureas having Androgen Receptor degradation activity and uses thereof” (ACCUTAR BIOTECHNOLOGY INC., priority 2019, dated 2022)
Positions count from the first letter of the chain named.

These molecules were tested against T1, androgen receptor (AR) (Homo sapiens, UniProt P10275, T878A) (assay: AR degradation in LNCAP cells (Western blot)). Conditions: 24 hours after administration.
T1 construct: endogenous in cells; host or cells: LNCAP
T1 sequence (P10275 1-920 T878A): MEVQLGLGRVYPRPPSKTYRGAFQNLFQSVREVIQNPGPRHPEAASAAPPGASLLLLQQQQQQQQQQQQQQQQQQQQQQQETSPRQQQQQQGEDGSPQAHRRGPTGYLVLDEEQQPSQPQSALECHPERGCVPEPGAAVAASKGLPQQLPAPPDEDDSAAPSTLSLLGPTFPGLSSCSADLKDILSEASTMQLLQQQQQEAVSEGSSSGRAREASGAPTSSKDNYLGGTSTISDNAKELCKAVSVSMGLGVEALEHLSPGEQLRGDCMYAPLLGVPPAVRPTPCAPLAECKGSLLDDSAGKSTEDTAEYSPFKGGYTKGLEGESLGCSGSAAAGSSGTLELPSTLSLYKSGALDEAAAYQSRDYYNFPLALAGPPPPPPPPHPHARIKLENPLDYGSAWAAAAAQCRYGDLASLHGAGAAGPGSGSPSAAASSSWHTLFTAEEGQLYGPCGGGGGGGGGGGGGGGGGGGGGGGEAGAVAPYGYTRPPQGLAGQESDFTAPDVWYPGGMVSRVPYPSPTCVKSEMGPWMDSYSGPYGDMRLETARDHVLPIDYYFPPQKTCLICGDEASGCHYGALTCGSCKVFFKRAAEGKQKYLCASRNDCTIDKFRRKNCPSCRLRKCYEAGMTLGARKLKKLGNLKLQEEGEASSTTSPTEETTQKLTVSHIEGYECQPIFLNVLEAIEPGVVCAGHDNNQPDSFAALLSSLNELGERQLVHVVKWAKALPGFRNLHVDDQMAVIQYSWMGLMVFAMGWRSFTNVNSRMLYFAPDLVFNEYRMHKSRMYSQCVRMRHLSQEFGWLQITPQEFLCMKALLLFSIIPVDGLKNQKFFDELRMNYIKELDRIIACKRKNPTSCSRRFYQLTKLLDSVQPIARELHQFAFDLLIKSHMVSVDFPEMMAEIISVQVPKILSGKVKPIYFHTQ
Format: cell-based
Procedure: (§1) LNCAP, VCAP and 22Rv1 cells were plated in 24-well plates at 1.5×10E5 cells/well in the RPMI growth medium containing 10% FBS and 1% Penicillin Streptomycin, and then incubated at 37° C. overnight. The following day, the test compound was administered to the cells by using 1000× compound stock solution prepared in DMSO at various concentrations. After administration of the compound, the cells were then incubated at 37° C. for 24 hours. Upon completion, the cells were washed with PBS and protein was collected in Laemmli sample buffer (1×; VWR International). Proteins in cell lysate were separated by SDS-PAGE and transferred to Odyssey nitrocellulose membranes (Licor) with iblot® dry blotting transfer system (ThermoFisher). Nonspecific binding was blocked by incubating membranes with Intercept Blocking Buffer (Licor) for 1 hour at room temperature with gentle shaking. The membranes were then incubated overnight at 4° C. with Primary antibodies rabbit anti-AR (1:1,000, Cell Signaling, 5153) and mouse anti-GAPDH (1:5,000, Santa Cruz Biotechnology, sc-47724) diluted in Intercept Blocking Buffer containing 0.1% Tween 20. After washing 3 times with TBS-T, the membranes were incubated with IRDye® […] goat anti-mouse IgG (1:20,000, Licor) or IRDye® […] goat anti-rabbit IgG (1:20,000, Licor) for 1 hour. After TBS-T washes, membranes were rinsed in TBS and scanned on Odyssey® CLx Imaging System (Licor). The bands were quantified using Image Studio™ Software (Licor).
(§2) Tables 5 and 6 summarize the androgen receptor (AR) degradative activity of exemplary compounds in LNCAP, VCAP and 22Rv1 cell lines 24 hours after administration. DC50: compound concentration needed for 50% target protein degradation.
With `C[C@@H]1CN(c2ccc(C#N)c(C(F)(F)F)c2)[C@@H](C)CN1C(=O)Nc1ccc(N2CCC(CN3CCN(c4ccc5c(c4)C(=O)N(C4CCC(=O)NC4=O)C5=O)CC3)CC2)nc1` (stereo partly drawn) [Compound 1-30, (2R,5S)-4-(4-cyano-3-(trifluoromethyl)phenyl)-N-(6-(4-((4-(2-(2,6-dioxopiperidin-3-yl)-1,3-dioxoisoindolin-5-yl)piperazin-1-yl)methyl)piperidin-1-yl)pyridin-3-yl)-2,5-dimethylpiperazine-1-carboxamide] the DC50 was ≤ 10 nM.
`COc1cc(N2C[C@@H](C)N(C(=O)Nc3cnc(N4CCC(CN5CCN(c6ccc7c(c6)CN([C@H]6CCC(=O)NC6=O)C7=O)CC5)CC4)nc3)C[C@@H]2C)ccc1C#N` [Compound 1-52, (2R,5S)-4-(4-cyano-3-methoxyphenyl)-N-(2-(4-((4-(2-((S)-2,6-dioxopiperidin-3-yl)-1-oxoisoindolin-5-yl)piperazin-1-yl)methyl)piperidin-1-yl)pyrimidin-5-yl)-2,5-dimethylpiperazine-1-carboxamide] was tested, and the DC50 was ≤ 10 nM.
For `CCN(CC1CCN(c2ccc(NC(=O)N3C[C@H](C)N(c4ccc(C#N)c(Cl)c4)C[C@H]3C)cn2)CC1)C1CC(Oc2ccc3c(c2)C(=O)N(C2CCC(=O)NC2=O)C3=O)C1` (stereo partly drawn) [Compound 1-10, (2R,5S)-4-(3-chloro-4-cyanophenyl)-N-(6-(4-((((1r,3r)-3-((2-(2,6-dioxopiperidin-3-yl)-1,3-dioxoisoindolin-5-yl)oxy)cyclobutyl)(ethyl)amino)methyl)piperidin-1-yl)pyridin-3-yl)-2,5-dimethylpiperazine-1-carboxamide], the DC50 was 10 to 100 nM.
In the case of `C[C@@H]1CN(c2ccc(C#N)c(Cl)c2)[C@@H](C)CN1C(=O)Nc1ccc(N2CCC(CN3CCN(c4ccc5c(c4)C(=O)N(C4CCC(=O)NC4=O)C5=O)CC3)CC2)nc1` (stereo partly drawn) [Compound 1-13, (2R,5S)-4-(3-chloro-4-cyanophenyl)-N-(6-(4-((4-(2-(2,6-dioxopiperidin-3-yl)-1,3-dioxoisoindolin-5-yl)piperazin-1-yl)methyl)piperidin-1-yl)pyridin-3-yl)-2,5-dimethylpiperazine-1-carboxamide], the DC50 is reported as ≤ 10 nM.
For `C[C@@H]1CN(c2ccc(C#N)c(Cl)c2)[C@@H](C)CN1C(=O)Nc1ccc(N2CCC(CN3CCN(c4ccc5c(c4)CN([C@H]4CCC(=O)NC4=O)C5=O)CC3)CC2)nc1` [Compound 1-44, (2R,5S)-4-(3-chloro-4-cyanophenyl)-N-(6-(4-((4-(2-((S)-2,6-dioxopiperidin-3-yl)-1-oxoisoindolin-5-yl)piperazin-1-yl)methyl)piperidin-1-yl)pyridin-3-yl)-2,5-dimethylpiperazine-1-carboxamide], the DC50 was ≤ 10 nM.
For `CC(C)N(CC1CCN(c2ccc(NC(=O)N3C[C@H](C)N(c4ccc(C#N)c5ncccc45)C[C@H]3C)cn2)CC1)C1CC(Oc2ccc3c(c2)C(=O)N(C2CCC(=O)NC2=O)C3=O)C1` (stereo partly drawn) [Compound 2-13, (2R,5S)-4-(8-cyanoquinolin-5-yl)-N-(6-(4-((((1r,3r)-3-((2-(2,6-dioxopiperidin-3-yl)-1,3-dioxoisoindolin-5-yl)oxy)cyclobutyl)(isopropyl)amino)methyl)piperidin-1-yl)pyridin-3-yl)-2,5-dimethylpiperazine-1-carboxamide], the DC50 was > 100 nM.
`COc1cc(N2C[C@@H](C)N(C(=O)Nc3ccc(N4CCC(CN5CCN(c6ccc7c(c6)CN([C@H]6CCC(=O)NC6=O)C7=O)CC5)CC4)nc3)C[C@@H]2C)ccc1C#N` [Compound 1-33, (2R,5S)-4-(4-cyano-3-methoxyphenyl)-N-(6-(4-((4-(2-((S)-2,6-dioxopiperidin-3-yl)-1-oxoisoindolin-5-yl)piperazin-1-yl)methyl)piperidin-1-yl)pyridin-3-yl)-2,5-dimethylpiperazine-1-carboxamide] was tested, and the DC50 was ≤ 10 nM.
With `C[C@@H]1CN(c2ccc(C#N)c3ncccc23)[C@@H](C)CN1C(=O)Nc1cnc(N2CCC(CN3CCN(c4ccc5c(c4)C(=O)N(C4CCC(=O)NC4=O)C5=O)CC3)CC2)nc1` (stereo partly drawn) [Compound 2-8, (2R,5S)-4-(8-cyanoquinolin-5-yl)-N-(2-(4-((4-(2-(2,6-dioxopiperidin-3-yl)-1,3-dioxoisoindolin-5-yl)piperazin-1-yl)methyl)piperidin-1-yl)pyrimidin-5-yl)-2,5-dimethylpiperazine-1-carboxamide] the DC50 was > 100 nM.
For `C[C@@H]1CN(c2ccc(C#N)c3ncccc23)[C@@H](C)CN1C(=O)Nc1ccc(N2CCC(CN3CCN(c4cc5c(cc4F)C(=O)N(C4CCC(=O)NC4=O)C5=O)CC3)CC2)nc1` (stereo partly drawn) [Compound 2-22, (2R,5S)-4-(8-cyanoquinolin-5-yl)-N-(6-(4-((4-(2-(2,6-dioxopiperidin-3-yl)-6-fluoro-1,3-dioxoisoindolin-5-yl)piperazin-1-yl)methyl)piperidin-1-yl)pyridin-3-yl)-2,5-dimethylpiperazine-1-carboxamide], the DC50 was > 100 nM.
In the case of `C[C@@H]1CN(c2ccc(C#N)c(Cl)c2)[C@@H](C)CN1C(=O)Nc1ccc(N2CCC(CN3CCN(c4ccc5c(c4)CN([C@H]4CCC(=O)NC4=O)C5=O)CC3)CC2)c(F)c1` [Compound 1-46, (2R,5S)-4-(3-chloro-4-cyanophenyl)-N-(4-(4-((4-(2-((S)-2,6-dioxopiperidin-3-yl)-1-oxoisoindolin-5-yl)piperazin-1-yl)methyl)piperidin-1-yl)-3-fluorophenyl)-2,5-dimethylpiperazine-1-carboxamide], the DC50 is reported as ≤ 10 nM.
`C[C@@H]1CN(c2ccc(C#N)c3ncccc23)[C@@H](C)CN1C(=O)Nc1cnc(N2CCC(CN3CCN(c4ccc5c(c4)CN([C@H]4CCC(=O)NC4=O)C5=O)CC3)CC2)nc1` [Compound 2-10, (2R,5S)-4-(8-cyanoquinolin-5-yl)-N-(2-(4-((4-(2-((S)-2,6-dioxopiperidin-3-yl)-1-oxoisoindolin-5-yl)piperazin-1-yl)methy)piperidin-1-yl)pyrimidin-5-yl)-2,5-dimethylpiperazine-1-carboxamide] was tested, and the DC50 was > 100 nM.

These molecules were tested against T2, androgen receptor (AR) (Homo sapiens, UniProt P10275) (assay: AR degradation in VCAP cells (Western blot)). Conditions: 24 hours after administration.
T2 construct: endogenous in cells; host or cells: VCAP
T2 sequence (P10275 1-920): T1 sequence (P10275 1-920 T878A) with A878T
Format: cell-based
Procedure: as §1, §2
In the case of `C[C@@H]1CN(c2ccc(C#N)c(C(F)(F)F)c2)[C@@H](C)CN1C(=O)Nc1ccc(N2CCC(CN3CCN(c4ccc5c(c4)C(=O)N(C4CCC(=O)NC4=O)C5=O)CC3)CC2)nc1` (stereo partly drawn) [Compound 1-30, (2R,5S)-4-(4-cyano-3-(trifluoromethyl)phenyl)-N-(6-(4-((4-(2-(2,6-dioxopiperidin-3-yl)-1,3-dioxoisoindolin-5-yl)piperazin-1-yl)methyl)piperidin-1-yl)pyridin-3-yl)-2,5-dimethylpiperazine-1-carboxamide], the DC50 is reported as ≤ 10 nM.
